The structures appear in SMILES notation.

In assay [1] the test system is CD69. Put plainly: Induction of CD69 in human whole blood. The class given is cell-based. The following applies: 17 hrs at 37° C., y-axis 100% set to 1 uM of resiquimod, average where assay was performed multiple times, read-out: hWB CD69 EC50. How it is done: The induction of Type I interferon (IFN) MX-1 genes and the B-cell activation marker CD69 are downstream events that occur upon activation of the TLR7 pathway. The following is a human whole blood assay that measures their induction in response to a TLR7 agonist.
Heparinized human whole blood was harvested from human subjects and treated with test TLR7 agonist compounds at 1 mM. The blood was diluted with RPMI 1640 media and Echo was used to predot 10 nL per well giving a final concentration of 1 uM (10 nL in 10 uL of blood). After mixing on a shaker for 30 sec, the plates were covered and placed in a 37° C. chamber for o/n=17 hrs. Fixing/lysis buffer was prepared (5×->1× in H2O, warm at 37° C.; Cat #BD 558049) and kept the perm buffer (on ice) for later use.
For surface markers staining (CD69): prepared surface Abs: 0.045 ul hCD14-FITC (ThermoFisher Cat #MHCD1401)+0.6 ul hCD19-ef450 (ThermoFisher Cat #48-0198-42)+1.5 ul hCD69-PE (cat #BD555531)+0.855 ul FACS buffer. Added 3 ul/well, spin 1000 rpm for 1 min and mixed on shaker for 30 sec, put on ice for 30 mins. Stop stimulation after 30 minutes with 70 uL of prewarmed 1× fix/lysis buffer and use Feliex mate to resuspend (15 times, change tips for each plate) and incubate at 37 C for 10 minutes.
Centrifuge at 2000 rpm for 5 minutes aspirate with HCS plate washer, mix on shaker for 30 sec and then wash with 70 uL in dPBS and pelleted 2×s (2000 rpm for 5 min) and 50 ul wash in FACS buffer pelleted 1×s (2000 rpm for 5 min). Mix on shaker for 30 sec. For Intracellular markers staining (MX-1): Add 50 ul of BD Perm buffer III and mix on shaker for 30 sec. Incubate on ice for 30 minutes (in the dark). Wash with 50 uL of FACS buffer 2× (spin @2300 rpm×5 min after perm) followed by mixing on shaker for 30 sec. Resuspended in 20 ul of FACS buffer containing MX1 antibody ( )(4812)-Alexa 647: Novus Biologicals #NBP2-43704AF647) 20 ul FACS bf+0.8 ul hIgG+0.04 ul MX-1. Spin 1000 rpm for 1 min, mix on shaker for 30 se and the samples were incubated at RT in the dark for 45 minutes followed by washing 2×FACS buffer (spin @2300 rpm×5 min after perm). Resuspend 20 ul (35 uL total per well) of FACS buffer and cover with foil and place in 4° C. to read the following day. Plates were read on iQuePlus. The results were loaded into toolset and […] curves are generated in curve master. The y-axis 100% is set to 1 uM of resiquimod.

Assay [2] concerns the target T1, human TLR7 (Homo sapiens, UniProt Q9NYK1).
T1 construct: host or cells: HEK-Blue TLR7 cells (engineered human embryonic kidney cells)
T1 sequence (Q9NYK1 27-1049): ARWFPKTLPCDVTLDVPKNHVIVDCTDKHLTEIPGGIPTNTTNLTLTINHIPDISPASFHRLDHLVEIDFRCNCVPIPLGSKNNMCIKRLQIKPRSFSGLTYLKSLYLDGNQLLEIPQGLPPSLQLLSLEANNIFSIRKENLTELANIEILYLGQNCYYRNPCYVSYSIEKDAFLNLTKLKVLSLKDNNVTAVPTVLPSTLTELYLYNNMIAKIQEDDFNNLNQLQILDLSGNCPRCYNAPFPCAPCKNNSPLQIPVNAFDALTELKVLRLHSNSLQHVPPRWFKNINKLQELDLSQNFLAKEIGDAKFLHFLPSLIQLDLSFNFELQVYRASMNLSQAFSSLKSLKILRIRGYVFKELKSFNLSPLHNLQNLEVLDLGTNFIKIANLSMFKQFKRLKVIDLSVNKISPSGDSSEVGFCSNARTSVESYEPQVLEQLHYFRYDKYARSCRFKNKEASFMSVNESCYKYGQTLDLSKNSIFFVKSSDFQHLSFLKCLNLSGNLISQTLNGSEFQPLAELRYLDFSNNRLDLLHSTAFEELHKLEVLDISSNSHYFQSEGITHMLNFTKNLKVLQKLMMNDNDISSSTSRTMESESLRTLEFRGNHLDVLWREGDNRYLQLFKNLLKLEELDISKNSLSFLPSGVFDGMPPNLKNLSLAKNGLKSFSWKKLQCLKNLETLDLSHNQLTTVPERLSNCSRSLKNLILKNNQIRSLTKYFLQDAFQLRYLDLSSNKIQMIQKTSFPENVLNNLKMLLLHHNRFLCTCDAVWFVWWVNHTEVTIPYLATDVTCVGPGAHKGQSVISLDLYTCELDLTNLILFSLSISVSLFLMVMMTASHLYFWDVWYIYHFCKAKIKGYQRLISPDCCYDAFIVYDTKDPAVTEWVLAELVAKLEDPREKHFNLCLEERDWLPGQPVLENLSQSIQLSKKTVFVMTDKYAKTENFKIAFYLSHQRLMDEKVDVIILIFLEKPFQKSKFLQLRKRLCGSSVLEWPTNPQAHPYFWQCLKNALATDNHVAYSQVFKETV
Put plainly: Human TLR7 agonist activity reporter assay (HEK-Blue TLR7 cells, SEAP reporter). The assay is classed as cell-based. The following applies: 18 h treatment, average where assay was performed multiple times, read-out: hTLR7 Agonism EC50. Here is the method: This procedure describes a method for assaying human TLR7 (hTLR7) agonist activity of the compounds disclosed in this specification.
HEK-Blue™ TLR7 cells were added to each well of a 384-well tissue-culture plate (15,000 cells per well) and incubated 16-18 h at 37° C., 5% CO2. Compounds (100 nl) were dispensed into wells containing the HEK-Blue™ TLR cells and the treated cells were incubated at 37° C., 5% CO2. After 18 h treatment ten microliters of freshly-prepared Quanti-Blue™ reagent (Invivogen) was added to each well, incubated for 30 min (37° C., 5% CO2) and SEAP levels measured using an Envision plate reader (OD=620 nm). The half maximal effective concentration values (EC50; compound concentration which induced a response halfway between the assay baseline and maximum) were calculated.
In general terms: A reporter such as luciferase makes a cellular process visible.

Usually EC50 stands for the midpoint of the concentration-response curve. Take `CCCCNc1nc(N)nc2c(-c3cccnc3)nn(Cc3ccc(CNC4CCOCC4)cc3OC)c12` [Compound 114, N7-butyl-1-[(2-methoxy-4-{[(oxan-4-yl)amino]methyl}-phenyl)methyl]-3-(pyridin-3-yl)-1H-pyrazolo[4,3-d]pyrimidine-5,7-diamine]: the EC50 in assay [1] came to 42.7 nM; in assay [2], 291 nM.
Turning to `CCCCNc1nc(N)nc2c(OC)nn(Cc3ccc(CNC4CCOCC4)cc3OC)c12` [Compound 115, N7-butyl-3-methoxy-1-[(2-methoxy-4-{[(oxan-4-yl)amino]methyl}phenyl)-methyl]-1H-pyrazolo[4,3-d]pyrimidine-5,7-diamine], the EC50 was 8.1 nM in assay [1] and 40.1 nM in assay [2].
The matching figures for `CCCCNc1nc(N)nc2c(-c3cc[nH]n3)nn(Cc3ccc(CNC4CCOCC4)cc3OC)c12` [Compound 116, N7-butyl-1-[(2-methoxy-4-{[(oxan-4-yl)amino]methyl}-phenyl)methyl]-3-(1H-pyrazol-3-yl)-1H-pyrazolo[4,3-d]pyrimidine-5,7-diamine]: 709 nM and 1430 nM.
On to `CCCCNc1nc(N)nc2c(CO)nn(Cc3ccc(CNC4CCOCC4)cc3OC)c12` [Compound 118, [5-amino-7-(butylamino)-1-[(2-methoxy-4-{[(oxan-4-yl)amino]methyl}phenyl)-methyl]-1H-pyrazolo[4,3-d]pyrimidin-3-yl]methanol], for which the results for the EC50 in assay [1] and in assay [2] were 252 nM and 594 nM, respectively.
The matching figures for `CCCCNc1nc(N)nc2c(CO)nn(Cc3ccc(CN4CCN(CCO)CC4)cc3OC)c12` [Compound 119, 2-{4-[(4-{[5-amino-7-(butyl-amino)-3-(hydroxymethyl)-1H-pyrazolo[4,3-d]pyrimidin-l-yl]methyl}-3-methoxy-phenyl)methyl]piperazin-1-yl}ethan-1-ol]: 177 nM and 433 nM.
The matching figures for `CCCCNc1nc(N)nc2c(CO)nn(Cc3ccc(CN4CC(OC)C4)cc3OC)c12` [Compound 120, [5-amino-7-(butylamino)-1-({2-methoxy-4-[(3-methoxy-azetidin-1-yl)methyl]phenyl}-methyl)-1H-pyrazolo[4,3-d]pyrimidin-3-yl]methanol]: 199 nM and 334 nM.
Consider `CCCCNc1nc(N)nc2c(C3=CCOC3)nn(Cc3ccc(CNC4CCOCC4)cc3OC)c12` [Compound 121, N7-butyl-3-(2,5-dihydro-furan-3-yl)-1-[(2-methoxy-4-{[(oxan-4-yl)amino]methyl}-phenyl)methyl]-1H-pyrazolo[4,3-d]pyrimidine-5,7-diamine], for which the EC50 turned out to be 640 nM in assay [1] and 1560 nM in assay [2].
Take `CCCCNc1nc(N)nc2c(CC)nn(Cc3ccc(CNC4CCOCC4)cc3OC)c12` [Compound 122, N7-butyl-3-ethyl-1-[(2-methoxy-4-{[(oxan-4-yl)amino]methyl}phenyl)-methyl]-1H-pyrazolo[4,3-d]pyrimidine-5,7-diamine]: the EC50 was found to be 88.7 nM in assay [1] and 203 nM in assay [2].
Take `CCCCNc1nc(N)nc2c(C(C)C)nn(Cc3ccc(CNC4CCOCC4)cc3OC)c12` [Compound 123, N7-butyl-1-[(2-methoxy-4-{[(oxan-4-yl)amino]methyl}-phenyl)methyl]-3-(propan-2-yl)-1H-pyrazolo[4,3-d]pyrimidine-5,7-diamine]: the EC50 in assay [1] was found to be 418 nM; in assay [2], 1040 nM.
With `CCCCNc1nc(N)nc2c(C3CCOC3)nn(Cc3ccc(CNC4CCOCC4)cc3OC)c12` (centres unmarked) [Compound 124, N7-butyl-1-[(2-methoxy-4-{[(oxan-4-yl)amino]methyl}-phenyl)methyl]-3-(oxolan-3-yl)-1H-pyrazolo[4,3-d]pyrimidine-5,7-diamine], the EC50 in assay [1] is 339 nM; in assay [2] it was 798 nM.
With `CCC[C@@H](CO)Nc1nc(N)nc2c(C)nn(Cc3ccc(CN4CCN(CCO)CC4)cc3OC)c12` [Compound 125, (2S)-2-({5-amino-1-[(4-{[4-(2-hydroxyethyl)piperazin-1-yl]methyl}-2-methoxy-phenyl)methyl]-3-methyl-1H-pyrazolo[4,3-d]pyrimidin-7-yl}amino)pentan-1-ol], the EC50 in assay [1] was determined as 237 nM; in assay [2] it was 236 nM.
Turning to `CCC[C@@H](CCO)Nc1nc(N)nc2c(C)nn(Cc3ccc(CO)cc3OC)c12` [Compound 126, (3S)-3-[(5-amino-1-{[4-(hydroxymethyl)-2-methoxyphenyl]methyl}-3-methyl-1H-pyrazolo[4,3-d]pyrimidin-7-yl)amino]hexan-1-ol], the EC50 was 90.2 nM in assay [1] and 63.4 nM in assay [2].
Regarding `CCC[C@@H](CCO)Nc1nc(N)nc2c(C)nn(Cc3ccc(CNC4CCOCC4)cc3OC)c12` [Compound 127, (3S)-3-({5-amino-1-[(2-methoxy-4-{[(oxan-4-yl)amino]methyl}phenyl)-methyl]-3-methyl-1H-pyrazolo[4,3-d]pyrimidin-7-yl}amino)hexan-1-ol], the 50% effective concentration (EC50) in assay [1] came to 2.7 nM; in assay [2], 21.8 nM.
As for `CCC[C@@H](CCO)Nc1nc(N)nc2c(C)nn(Cc3ccc(CN4CCN(CCO)CC4)cc3OC)c12` [Compound 128, (3S)-3-({5-amino-1-[(4-{[4-(2-hydroxyethyl)piperazin-1-yl]methyl}-2-methoxy-phenyl)methyl]-3-methyl-1H-pyrazolo[4,3-d]pyrimidin-7-yl}amino)hexan-1-ol], the EC50 is 1.2 nM in assay [1] and 7.2 nM in assay [2].
Taken in the same sequence, the figures for `CCC[C@@H](CCO)Nc1nc(N)nc2c(C)nn(Cc3ccc(CN4CCN(C)CC4)cc3OC)c12` [Compound 129, (3S)-3-{[5-amino-1-({2-methoxy-4-[(4-methyl-piperazin-1-yl)methyl]-phenyl}methyl)-3-methyl-1H-pyrazolo[4,3-d]pyrimidin-7-yl]amino}hexan-1-ol] were 3.5 nM and 5.93 nM.
Consider `CCC[C@@H](CCO)Nc1nc(N)nc2c(C)nn(Cc3ccc(CN[C@@H]4CCCOC4)cc3OC)c12` [Compound 130, (3S)-3-[(5-amino-1-{[2-methoxy-4-({[(3R)-oxan-3-yl]amino}methyl)phenyl]-methyl}-3-methyl-1H-pyrazolo[4,3-d]pyrimidin-7-yl)amino]hexan-1-ol], for which the EC50 turned out to be 7.5 nM in assay [1] and 93.8 nM in assay [2].

These data come from US20230127326A1, “C3-SUBSTITUTED 1H-PYRAZOLO[4,3-d]PYRIMIDINE COMPOUNDS AS TOLL-LIKE RECEPTOR 7 (TLR7) AGONISTS” (BRISTOL-MYERS SQUIBB COMPANY, priority 2020, published 2023).
